Patent publication US20060063784A1, “Method of using substituted pyrazolo [1,5-a] pyrimidines” (priority 2004, published 2006)
Like-named read-outs stand apart in the source and are kept apart here.

Tests used:
[1] = test system: 80S14 (p21-deficient) cells; experiment: Cytotoxicity assay using isogenic cell lines: IC50 in 80S14 (p21-deficient) cells, SRB; format: cell-based, human
Outline: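 IC50 is the concentration halving proliferation relative to untreated controls, read from SRB absorbance (560 nm) after TCA fixation. Test agent dilutions (5 pM–50 μM or 170 pg/ml–10 μg/ml) were left on p21-deficient 80S14 cells (12,000/well, pre-incubated overnight) for 5 days at 37 °C.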

LoVo Colon cell line = experiment: Cytotoxicity assay using LoVo colon cell line, SRB; format: cell-based; conditions: read-out: Inhibition of LoVo
Description: Cytotoxicity Assay Using LoVo Colon Cell Line: • 1. LoVo Colon cell lines were cultured in RPMI 1640 medium (Gibco/Invitrogen Life Sciences) supplemented with 10% fetal bovine serum (FBS, Gibco) and 50 μg/ml entamicin (Gibco). Cells were maintained at 37° C. under 7% CO2. • 2. Cells were seeded in 96-well microtiter plates (Corning/Costar) in a volume of 0.15 ml of growth medium (4000 cells/well). Plates were incubated at 37° C. overnight (18-24 hours). • 3. Serial dilutions of the test agent were added to each well. Dilutions were prepared in growth medium. One of two dose ranges was used: 5 pM to 20 μM or 170 pg/ml to 10 μg/ml. Cells were incubated with the test compounds for 4 days at 37° C. • 4. Surviving cells were processed using the SRB asay, as described above.
5. The drug concentration that inhibits cell proliferation by 50% relative to untreated controls (IC50) was determined from cytotoxicity curves using the LSW Toolbox graphing application.

[2] = Homo sapiens, 80S14, 120 h, read-out: IC50 for 80SI4 (uM)
[3] = Homo sapiens, 120 h, 80S14 p21-deficient cells, 5 days incubation, SRB, read-out: IC50 for 80SI4
[4] = Homo sapiens, 96 h, LoVo colon cells, 4 days incubation, SRB
[5] = 80S14 p21-deficient cells, 5 days incubation, SRB, read-out: IC50 for 80SI4
[6] = LoVo colon cells, 4 days incubation, SRB

Compound: CC(C)(C)CC(=O)Nc1cccc(-c2ccnc3c(C(=O)c4cccs4)cnn23)c1 [Example 55, 3,3-dimethyl-N-{3-[3-(thien-2-ylcarbonyl)pyrazolo[1,5-a]pyrimidin-7-yl]phenyl}butanamide]
- IC50 [1, 2]: < 1 µM
- IC50 (LoVo Colon cell line; Homo sapiens, LoVo, 96 h): < 100 nM

Compound: CC(C)CCC(=O)Nc1cccc(-c2ccnc3c(C(=O)c4cccs4)cnn23)c1 [Example 56, 4-methyl-N-{3-[3-(thien-2-ylcarbonyl)pyrazolo[1,5-a]pyrimidin-7-yl]phenyl}pentanamide]
- IC50 [1, 2]: < 1 µM
- IC50 (LoVo Colon cell line; Homo sapiens, LoVo, 96 h): < 100 nM

Compound: O=C(CC1CC1)Nc1cccc(-c2ccnc3c(C(=O)c4cccs4)cnn23)c1 [Example 72, 2-cyclopropyl-N-{3-[3-(thien-2-ylcarbonyl)pyrazolo[1,5-a]pyrimidin-7-yl]phenyl}acetamide]
- IC50 [1, 3]: < 1 µM
- IC50 (LoVo Colon cell line; [4]): 100 to 1000 nM

Compound: O=C(CC1CCCCC1)Nc1cccc(-c2ccnc3c(C(=O)c4cccs4)cnn23)c1 [Example 74, 2-cyclohexyl-N-{3-[3-(thien-2-ylcarbonyl)pyrazolo[1,5-a]pyrimidin-7-yl]phenyl}acetamide]
- IC50 [1, 3]: < 1 µM
- IC50 (LoVo Colon cell line; [4]): < 100 nM

Compound: O=C(CC1CCCCCC1)Nc1cccc(-c2ccnc3c(C(=O)c4cccs4)cnn23)c1 [Example 75, 2-cycloheptyl-N-{3-[3-(thien-2-ylcarbonyl)pyrazolo[1,5-a]pyrimidin-7-yl]phenyl}acetamide]
- IC50 [1, 3]: < 1 µM
- IC50 (LoVo Colon cell line; [4]): < 100 nM

Compound: O=C(CC1CC2CCC1C2)Nc1cccc(-c2ccnc3c(C(=O)c4cccs4)cnn23)c1 (stereo not shown) [Example 76, 2-bicyclo[2.2.1]hept-2-yl-N-{3-[3-(thien-2-ylcarbonyl)pyrazolo[1,5-a]pyrimidin-7-yl]phenyl}acetamide]
- IC50 [1, 3]: < 1 µM
- IC50 (LoVo Colon cell line; [4]): < 100 nM

Compound: COc1ccccc1C(=O)Nc1cccc(-c2ccnc3c(C(=O)c4cccs4)cnn23)c1 [Example 93, 2-methoxy-N-{3-[3-(thien-2-ylcarbonyl)pyrazolo[1,5-a]pyrimidin-7-yl]phenyl}benzamide]
- IC50 [1, 3]: < 1 µM
- IC50 (LoVo Colon cell line; [4]): < 100 nM

Compound: Cc1ccccc1C(=O)Nc1cccc(-c2ccnc3c(C(=O)c4cccs4)cnn23)c1 [Example 94, 2-methyl-N-{3-[3-(thien-2-ylcarbonyl)pyrazolo[1,5-a]pyrimidin-7-yl]phenyl}benzamide]
- IC50 [1, 3]: < 1 µM
- IC50 (LoVo Colon cell line; [4]): < 100 nM

Compound: O=C(Nc1cccc(-c2ccnc3c(C(=O)c4cccs4)cnn23)c1)c1ccccc1Cl [Example 95, 2-chloro-N-{3-[3-(thien-2-ylcarbonyl)pyrazolo[1,5-a]pyrimidin-7-yl]phenyl}benzamide]
- IC50 [1, 3]: < 1 µM
- IC50 (LoVo Colon cell line; [4]): < 100 nM

Compound: O=C(Nc1cccc(-c2ccnc3c(C(=O)c4cccs4)cnn23)c1)c1ccccc1C(F)(F)F [Example 96, N-{3-[3-(thien-2-ylcarbonyl)pyrazolo[1,5-a]pyrimidin-7-yl]phenyl}-2-(trifluoromethyl)benzamide]
- IC50 [1, 3]: < 1 µM
- IC50 (LoVo Colon cell line; [4]): < 100 nM

Compound: CCCC(=O)Nc1cccc(-c2ccnc3c(C(=O)c4cccs4)cnn23)c1 [Example 148, N-{3-[3-(thien-2-ylcarbonyl)pyrazolo[1,5-a]pyrimidin-7-yl]phenyl}butanamide]
- IC50 [1, 2]: < 1 µM
- IC50 (LoVo Colon cell line; Homo sapiens, LoVo, 96 h): < 100 nM

Compound: CCCCC(=O)Nc1cccc(-c2ccnc3c(C(=O)c4cccs4)cnn23)c1 [Example 152, N-3{3-[3-(thien-2-ylcarbonyl)pyrazolo[1,5-a]pyrimidin-7-yl]phenyl}pentanamide]
- IC50 [1, 5]: < 1 µM
- IC50 (LoVo Colon cell line; [6]): < 100 nM

Compound: O=C(c1cccs1)c1cnn2c(-c3cccc(NC(=O)N4CCCCC4)c3)ccnc12 [Example 155, N-{3-[3-(thien-2-ylcarbonyl)pyrazolo[1,5-a]pyrimidin-7-yl]phenyl}piperidine-1-carboxamide]
- IC50 [1, 3]: < 1 µM
- IC50 (LoVo Colon cell line; [4]): < 100 nM

Compound: CCCCN(C)C(=O)Nc1cccc(-c2ccnc3c(C(=O)c4cccs4)cnn23)c1 [Example 156, N-butyl-N-methyl-N′-{3-[3-(thien-2-ylcarbonyl)pyrazolo[1,5-a]primidin-7-yl]phenyl}urea]
- IC50 [1, 5]: < 1 µM
- IC50 (LoVo Colon cell line; [6]): 100 to 1000 nM

Compound: CCC(C)NC(=O)Nc1cccc(-c2ccnc3c(C(=O)c4cccs4)cnn23)c1 (stereo not shown) [Example 158, N-(sec-butyl)-N′-{3-[3-(thien-2-ylcarbonyl)pyrazolo[1,5-a]pyrimidin-7-yl]phenyl}urea]
- IC50 [1, 3]: < 1 µM
- IC50 (LoVo Colon cell line; [4]): < 100 nM

Compound: CCN(CC)C(=O)Nc1cccc(-c2ccnc3c(C(=O)c4cccs4)cnn23)c1 [Example 159, N,N-diethyl-N′-{3-[3-(thien-2-ylcarbonyl)pyrazolo[1,5-a]pyrimidin-7-yl]phenyl}urea]
- IC50 [1, 3]: 1 to 10 µM
- IC50 (LoVo Colon cell line; [4]): 100 to 1000 nM

Compound: O=C(NCC1CCCCC1)Nc1cccc(-c2ccnc3c(C(=O)c4cccs4)cnn23)c1 [Example 160, N-(cyclohexylmethyl)-N′-{3-[3-(thien-2-ylcarbonyl)pyrazolo[1,5-a]pyrimidin-7-yl]phenyl}urea]
- IC50 [1, 3]: 1 to 10 µM
- IC50 (LoVo Colon cell line; [4]): 100 to 1000 nM

Compound: O=C(Nc1cccc(-c2ccnc3c(C(=O)c4cccs4)cnn23)c1)NC1CCCC1 [Example 162, N-cyclopentyl-N′-{3-[3-(thien-2-ylcarbonyl)pyrazolo[1,5-a]pyrimidin-7-yl]phenyl}urea]
- IC50 [1, 3]: < 1 µM
- IC50 (LoVo Colon cell line; [4]): < 100 nM

Compound: O=C(NCC1CCCO1)Nc1cccc(-c2ccnc3c(C(=O)c4cccs4)cnn23)c1 (stereo not shown) [Example 163, N-(tetrahydrofuran-2-ylmethyl)-N′-{3-[3-(thien-2-ylcarbonyl)pyrazolo[1,5-a]pyrimidin-7-yl]phenyl}urea]
- IC50 [1, 3]: < 1 µM
- IC50 (LoVo Colon cell line; [4]): 100 to 1000 nM

Compound: CC(C)(C)CNC(=O)Nc1cccc(-c2ccnc3c(C(=O)c4cccs4)cnn23)c1 [Example 164, N-neopentyl-N′-{3-[3-(thien-2-ylcarbonyl)pyrazolo[1,5-a]pyrimidin-7-yl]phenyl}urea]
- IC50 [1, 3]: < 1 µM
- IC50 (LoVo Colon cell line; [4]): < 100 nM

Compound: CCCCCNC(=O)Nc1cccc(-c2ccnc3c(C(=O)c4cccs4)cnn23)c1 [Example 165, N-pentyl-N′-{3-[3-(thien-2-ylcarbonyl)pyrazolo[1,5-a]pyrimidin-7-yl]phenyl}urea]
- IC50 [1, 3]: < 1 µM
- IC50 (LoVo Colon cell line; [4]): 100 to 1000 nM

Compound: COCCN(CCOC)C(=O)Nc1cccc(-c2ccnc3c(C(=O)c4cccs4)cnn23)c1 [Example 168, N,N-bis(2-methoxyethyl)-N′-{3-[3-(thien-2-ylcarbonyl)pyrazolo[1,5-a]pyrimidin-7-yl]phenyl}urea]
- IC50 [1, 3]: 10 to 50 µM
- IC50 (LoVo Colon cell line; [4]): 1000 to 2000 nM

Compound: O=C(Nc1cccc(-c2ccnc3c(C(=O)c4cccs4)cnn23)c1)NC1CC1 [Example 169, N-cyclopropyl-N′-{3-[3-(thien-2-ylcarbonyl)pyrazolo[1,5-a]pyrimidin-7-yl]phenyl}urea]
- IC50 [1, 3]: 1 to 10 µM
- IC50 (LoVo Colon cell line; [4]): 100 to 1000 nM

Compound: O=C(c1cccs1)c1cnn2c(-c3cccc(NC(=O)N4CCCC4)c3)ccnc12 [Example 170, N-{3-[3-(thien-2-ylcarbonyl)pyrazolo[1,5-a]pyrimidin-7-yl]phenyl}pyrrolidine-1-carboxamide]
- IC50 [1, 3]: 1 to 10 µM
- IC50 (LoVo Colon cell line; [4]): 100 to 1000 nM

Compound: O=C(Nc1cccc(-c2ccnc3c(C(=O)c4cccs4)cnn23)c1)OC1CCCC1 [Example 171, cyclopentyl 3-[3-(thien-2-ylcarbonyl)pyrazolo[1,5-a]pyrimidin-7-yl]phenylcarbamate]
- IC50 [1, 3]: < 1 µM
- IC50 (LoVo Colon cell line; [4]): < 100 nM

Compound: O=C(Nc1cccc(-c2ccnc3c(C(=O)c4cccs4)cnn23)c1)OC1CCCCC1 [Example 172, cyclohexyl 3-(3-(thien-2-ylcarbonyl)pyrazolo[1,5-a]pyrimidin-7-yl]phenylcarbamate]
- IC50 [1, 3]: < 1 µM
- IC50 (LoVo Colon cell line; [4]): < 100 nM
